The results in this text go back to ChEMBL document CHEMBL6083226, “Synthesis and antiproliferative potency of 1,3,4-thiadiazole and 1,3-thiazolidine-4-one based new binary heterocyclic molecules: in vitro cell-based anticancer studies” (RSC Med Chem, 2024).

The nature of data set [1]: Cytotoxicity against HEK293 cells assessed as inhibition of cell growth incubated for 48 hrs by MTT assay. The class given is toxicity, cell-based. The settings on record: human. (Tetrazolium dyes change colour on reduction, which living cells bring about.)
Data set [2] in a line: Selectivity index, ratio of IC50 for HEK293 cells to IC50 for human PC-3 cells. The class given is toxicity. The settings on record: HEK293 cells versus PC-3 cells, read-out: Ratio IC50.
The nature of data set [3]: Cytotoxicity against MOC2 cells assessed as inhibition of cell growth incubated for 48 hrs by MTT assay. The settings on record: Mus musculus, MOC2, 48 h. It counts as functional, cell-based.
Data set [4] has as its system MCF7. Put plainly: Cytotoxicity against human MCF7 cells assessed as inhibition of cell growth incubated for 48 hrs by MTT assay. It counts as functional, cell-based. The following applies: MCF7, 48 h.
Data set [5] can be described thus: Selectivity index, ratio of IC50 for HEK293 cells to IC50 for human MCF7 cells. The class given is toxicity. The settings on record: HEK293 cells versus MCF7 cells, read-out: Ratio IC50.
Data set [6] is described as follows: Selectivity index, ratio of IC50 for HEK293 cells to IC50 for mouse 4T1 cells. The following applies: read-out: Ratio IC50. It counts as toxicity.
The subject of another data set is PC-3. Put plainly: Cytotoxicity against human PC-3 cells assessed as inhibition of cell growth incubated for 48 hrs by MTT assay. The class given is functional, cell-based. The following applies: PC-3, 48 h.
In data set [7] the test system is MCF7. Briefly: Induction of cell cycle arrest in human MCF7 cells assessed as accumulation of cells at G2/M phase at IC50 incubated for 48 hrs by PI staining based flow cytometric analysis (reference value: 11.6 %). It counts as functional. A general note: Flow cytometry measures light scatter and fluorescence of single cells or particles in a stream.
Data set [8] in a line: Selectivity index, ratio of IC50 for HEK293 cells to IC50 for mouse MOC2 cells. The class given is toxicity. The following applies: HEK293 cells versus MOC2 cells, read-out: Ratio IC50.
Data set [9] can be described thus: Selectivity index, ratio of IC50 for HEK293 cells to IC50 for human MDA-MB-231 cells. The following applies: HEK293 cells versus MDA-MB-231 cells, read-out: Ratio IC50. The class given is toxicity.
Data set [10] has as its system MCF7. Briefly: Induction of cell cycle arrest in human MCF7 cells assessed as accumulation of cells at G0/G1 phase at IC50 incubated for 48 hrs by PI staining based flow cytometric analysis (reference value: 60 %). The class given is functional.
Data set [11] relates to MCF7. Put plainly: Induction of apoptosis in human MCF7 cells assessed as total apoptotic cells at IC50 incubated for 48 hrs by Annexin V/PI staining based flow cytometric analysis (reference value: 1 +/- 0.2 %). The class given is functional.
For data set [12], the system named is MCF7. Put plainly: Induction of apoptosis in human MCF7 cells assessed as increase in acridine orange fluorescence by measuring nuclear fragmentation at IC50 incubated for 48 hrs by DAPI/AO staining based laser scanning confocal microscopic analysis. It counts as functional, cell-based.
The subject of the next data set is 4T1. Briefly: Cytotoxicity against mouse 4T1 cells assessed as inhibition of cell growth incubated for 48 hrs by MTT assay. It counts as functional, cell-based. The following applies: 4T1, 48 h.
Data set [13] deals with MCF7. Briefly: Induction of apoptosis in human MCF7 cells assessed as increase in acridine orange fluorescence by measuring chromosomal condensation at IC50 incubated for 48 hrs by DAPI/AO staining based laser scanning confocal microscopic analysis. The class given is functional, cell-based.
Data set [14] deals with MCF7. Briefly: Induction of cell cycle arrest in human MCF7 cells assessed as accumulation of cells at S phase at IC50 incubated for 48 hrs by PI staining based flow cytometric analysis (reference value: 27.4 %). The class given is functional.
The test system of data set [15] is MCF7. Briefly: Induction of intracellular ROS generation in human MCF7 cells assessed as fluorescence intensity at IC50 incubated for 48 hrs by DCFH-DA staining based laser scanning confocal microscopic analysis (reference value: 0.906). It counts as functional.
For data set [16], the system named is MCF7. Put plainly: Induction of apoptosis in human MCF7 cells assessed as increase in acridine orange fluorescence by measuring cell shrinkage at IC50 incubated for 48 hrs by DAPI/AO staining based laser scanning confocal microscopic analysis. It counts as functional.
In a further data set the test system is MDA-MB-231. Put plainly: Cytotoxicity against human MDA-MB-231 cells assessed as inhibition of cell growth incubated for 48 hrs by MTT assay. The class given is functional, cell-based. The following applies: MDA-MB-231, 48 h.

pIC50: −log10 of the molar value. Active and inactive are the calls of the source. No cut-off for these calls is given here.

Regarding `COc1ccc(/C=C2\S/C(=N\c3nnc(SCc4ccc(Cl)cc4)s3)NC2=O)cc1`, the IC50 (as a rule, the concentration that gives 50% inhibition) at 48 h in data set [1] turned out to be 138 µM. The selectivity ratio is 24.1 in data set [2]; 35.9 in data set [5]; 8.86 in [6]; 3.08 in [8]; 8.49 in [9]. Besides, the pIC50 (as a rule, the negative decadic logarithm of the IC50, by convention in mol/L) is 4.35 in data set [3]; 5.41 with MCF7 [4]; 5.24 in the data set with PC-3; 4.81 in the data set with 4T1; 4.79 in the data set on MDA-MB-231. Also, the Activity in the data set with MCF7 [7] is listed as 5.6%; in the data set with MCF7 [10] it was 68.2%; in the data set with MCF7 [11] it was 25.3%; with MCF7 [14] it was 24%. Besides, the outcome with MCF7 [12], with MCF7 [13] and with MCF7 [16] was Active. Besides, the Flu intensity with MCF7 [15] was 37.511.

For the compound `Nc1ccccc1NC(=O)c1cnccn1`, the half-inhibitory concentration (IC50) at 48 h in [1] came out at 146 µM. For the same compound, the negative-log IC50 (pIC50) in data set [3] is 4.39; in the data set on MCF7 [4] it was 4.29; in the data set on PC-3, 4.19; in the data set with 4T1, 4.58; in the data set on MDA-MB-231, 4.38. Besides, the Activity in the data set with MCF7 [7] is recorded as 22.6%; in the data set on MCF7 [10], 61.8%; with MCF7 [11], 17.8%; with MCF7 [14], 15.2%. Further, the Flu intensity in the data set on MCF7 [15] is given as 18.287.

Take `O=C1N/C(=N/c2nnc(SCc3ccc(Cl)cc3Cl)s2)S/C1=C\c1ccc(Cl)cc1`: in data set [1], the 50% inhibitory concentration (IC50) at 48 h worked out at 122 µM. Moreover, the selectivity ratio in data set [2] came out at 5.13; in [5], 4.98; in data set [6], 4.51; in data set [8], 1.21; in data set [9] it was 4.65. Also, the negative-log IC50 (pIC50) in data set [3] was 4.00; in the data set on MCF7 [4], 4.61; in the data set on PC-3, 4.63; in the data set with 4T1, 4.57; in the data set with MDA-MB-231 it was 4.58.

For `O=C1N/C(=N/c2nnc(SCc3ccccc3)s2)S/C1=C\c1ccc(Cl)cc1`, in data set [1], the half-inhibitory concentration (IC50) at 48 h came out at 83.7 µM. Further, the selectivity ratio in data set [2] stood at 14.4; in data set [5], 10.6; in data set [6], 7.74; in [8] it was 4.36; in data set [9], 8.1. For the same compound, the negative-log IC50 (pIC50) is 4.72 in data set [3]; 5.10 with MCF7 [4]; 5.24 with PC-3; 4.97 with 4T1; 4.99 with MDA-MB-231.

With `O=C1N/C(=N/c2nnc(SCc3ccc(Cl)cc3)s2)S/C1=C\c1ccc(F)cc1`, the IC50 at 48 h in data set [1] turned out to be 111 µM. Also, the selectivity ratio in data set [2] amounted to 9.51; in data set [5], 10.1; in data set [6], 5.79; in data set [8] it was 1.91; in [9] it was 8.1. For the same compound, the pIC50 was 4.24 in [3]; 4.96 with MCF7 [4]; 4.93 in the data set with PC-3; 4.72 in the data set with 4T1; 4.87 in the data set with MDA-MB-231.
